Measurements published in PubChem BioAssay (NCI).
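Values below derive from 48-hour exposures of cells grown in 96-well plates, with endpoints linearly interpolated between the two concentrations bracketing the appropriate inhibition level. GI50: concentration for 50% inhibition of growth. TGI: total growth inhibition.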

Tests used:
Assay in all cases: growth of human tumour cells (NCI), 48 h
UACC-62 melanoma = test system: UACC-62 melanoma
SW-620 colon = test system: SW-620 colon
U251 CNS = test system: U251 CNS
M14 melanoma = test system: M14 melanoma
KM12 colon = test system: KM12 colon
MOLT-4 leukemia = test system: MOLT-4 leukemia
A498 renal = test system: A498 renal
NCI-H522 lung = test system: NCI-H522 lung
IGROV1 ovarian = test system: IGROV1 ovarian
MDA-MB-231 breast = test system: MDA-MB-231 breast

| Structure (SMILES) | TGI (UACC-62 melanoma) [µM] | TGI (SW-620 colon) [µM] | TGI (U251 CNS) [µM] | TGI (M14 melanoma) [µM] | TGI (KM12 colon) [µM] | TGI (MOLT-4 leukemia) [µM] | TGI (A498 renal) [µM] | TGI (NCI-H522 lung) [µM] | TGI (IGROV1 ovarian) [µM] | TGI (MDA-MB-231 breast) [µM] | GI50 (UACC-62 melanoma) [nM] | GI50 (SW-620 colon) [nM] | GI50 (KM12 colon) [nM] | GI50 (MOLT-4 leukemia) [µM] | GI50 (A498 renal) [nM] | GI50 (MDA-MB-231 breast) [nM] | GI50 (IGROV1 ovarian) [nM] |
| --- | --- | --- | --- | --- | --- | --- | --- | --- | --- | --- | --- | --- | --- | --- | --- | --- | --- |
| COCN1COCN=C1NC#N | > 100 | 66.8 | > 100 | > 100 | > 100 | > 100 | > 100 | > 100 | > 100 |  |  |  |  |  |  |  |  |
| NC1=NS(=O)(=O)Nc2nc(-c3ccccc3)[nH]c21 | > 100 | > 100 | > 100 | > 100 | > 100 | > 100 |  | > 100 | > 100 |  |  |  |  |  |  |  |  |
| Nc1[nH]nc2nc3ccccc3nc12 | > 100 | > 100 | > 100 |  |  | > 100 | > 100 | > 100 | 99.2 | > 100 |  |  |  |  |  |  |  |
| NNC(=S)NCCNC(=S)NN | > 100 | > 100 | > 100 | > 100 | > 100 | > 100 |  | > 100 | > 100 | > 100 |  |  |  |  |  |  |  |
| COC(=O)c1c(O)ccc2[nH]c3c(O)c4ccccc4cc3c12 | > 100 |  | > 100 | 67.4 | 38.8 | > 100 | > 100 | 53.6 | 43.5 | > 100 |  |  |  |  |  |  |  |
| Cn1cc(-c2ccc3cc(-c4ccc(CC(=O)Nc5cc(C(C)(C)C)on5)cc4)cnc3c2)cn1 | 3.12 | 3.99 |  |  | 11.2 | > 100 | 2.26 |  | 3.52 | 12.2 | 1020 | 1540 | 70 | 3.01 | 269 | 2260 | 356 |
| CC(=O)Oc1c(N2CCCCC2)c(C(=O)c2ccccc2)c(O)c2ccn(N(C)C)c12 | 30.3 | 35.1 | 33.5 | 53.7 | 27.1 | 49.8 | 29.1 |  |  | 30.6 |  |  |  |  |  |  |  |
| O=c1ccn(C2OC(CO)C(O)C2F)c(=O)n1Cc1ccccc1 (centres undefined) | > 100 | > 100 | > 100 |  | > 100 | > 100 |  | > 100 | > 100 | > 100 |  |  |  |  |  |  |  |
| CC(=O)Oc1c2c(c3n(c1=O)CCCC3)C(=O)N(c1ccccc1)C2=O | > 100 | > 100 | > 100 | > 100 | > 100 | > 100 |  | > 100 | > 100 | > 100 |  |  |  |  |  |  |  |
| CC1(C)CCC(C)(C)C1C(=O)NC(O)C(=O)O (centres undefined) | > 100 | > 100 | > 100 | > 100 |  | > 100 | > 100 |  | > 100 | > 100 |  |  |  |  |  |  |  |
| O=C(CC1OC(O)C(Cl)=C1Cl)c1cccnc1 (centres undefined) | > 100 | > 33.9 | > 57.7 | > 100 | > 100 | > 100 | > 100 | > 100 | > 100 |  |  |  |  |  |  |  |  |
| CC(=O)Oc1ccc2c(c1)CC[C@@H]1C2[C@@H](O[N+](=O)[O-])C[C@@]2(C)C1CC[C@@H]2O[N+](=O)[O-] (some centres undefined) | 32.5 | 33.1 | 27.5 | 31.6 | 33.4 | 38.4 | 32.8 | 25.4 | 30.7 |  |  |  |  |  |  |  |  |
| CCOC(=O)C(Cc1ccc(OC(=O)OC(C)(C)C)cc1)NC(=O)OC(C)(C)C (centres undefined) | > 100 | > 100 | > 100 | 79.9 | > 100 | 56.7 |  | > 100 | > 100 | > 100 |  |  |  |  |  |  |  |
| C=C1C(=O)O[C@@H]2[C@H](O)[C@@H](C)[C@@H]3C=CC(=O)[C@@]3(C)[C@@H](OC(=O)/C(C)=C/C)[C@H]12 | 1.11 | 1.14 | 5.26 |  | 7.21 | 2.09 | 6.88 | 0.258 | 2.02 |  |  |  |  |  |  |  |  |
| N=c1c2c(=S)n(-c3ccccc3)c(=S)n(-c3ccccc3)c2nc(SCCN2CCCC2)n1-c1ccccc1 | 3.04 |  | 8.36 | 3.44 | 11.6 | 3.35 | 23.5 | 3.71 | 3.52 | 3.52 |  |  |  |  |  |  |  |
| Cc1ccc(C(=O)Nc2ccc(CP(=O)(O)O)cc2CP(=O)(O)O)cc1NC(=O)Nc1cc(C(=O)Nc2ccc(CP(=O)(O)O)cc2CP(=O)(O)O)ccc1C | > 100 | > 100 | > 100 | > 100 | > 100 |  | > 100 | > 100 | > 100 | > 100 |  |  |  |  |  |  |  |
| CC(C)(C)OC(=O)CN1CCNCCN(CC(=O)OC(C)(C)C)CCNCC1 | > 100 | > 100 | > 100 |  | > 100 | > 100 | > 100 | > 100 | > 100 | > 100 |  |  |  |  |  |  |  |
| CCOC(=O)NC(OC)(C(F)(F)F)C(F)(F)F | > 100 | > 100 | > 100 | > 100 |  | > 100 | > 100 | > 100 | > 100 | > 100 |  |  |  |  |  |  |  |
| O=C1CC(c2ccccc2)=Nc2ccccc2N1 | > 100 | 51.8 | > 100 | > 100 | > 100 | > 100 | > 100 | > 100 | > 100 |  |  |  |  |  |  |  |  |
| Cn1ncc2c(Cl)ncnc21 | > 100 | > 100 | > 100 | > 100 | > 100 | > 100 | > 100 | > 100 | > 100 |  |  |  |  |  |  |  |  |
| Cc1ccc(C2=C(C#N)C(N)OC3=C2COc2ccccc23)cc1 (centres undefined) | > 100 | > 100 | 51 | > 100 | > 100 | > 100 | 50.2 |  | > 100 | > 100 |  |  |  |  |  |  |  |
| Cn1c(CO)ccc1-c1ccc(-c2ccc[se]2)[se]1 |  | 77.8 |  | > 100 | > 100 | 59.7 | 0.187 | > 100 |  | 60 |  |  |  |  |  |  |  |
| Clc1cccc(NN=Nc2ccc(-c3nc4ccccc4s3)cc2)c1 | 51.8 | > 100 | > 100 | > 100 | > 100 | 40.6 | > 100 | 66.2 | 54.5 |  |  |  |  |  |  |  |  |
